In US11542233B2, “Compounds, compositions and methods of use” (Aquinnah Pharmaceuticals, Inc., priority 2016, dated 2023) one finds IC50 data, which are given here for 47 compounds.

The structures appear in SMILES notation. Where only a bound is given, the exact number is not on record here.

In the assay the test system is TDP-43 aggregation in PC12 cells stably expressing GFP-tagged mutant TDP-43 (TDP-43^Q33IK::eGFP). The experiment in a line: In vitro efficacy assay: inhibition of TDP-43 inclusions, concentration-response, fluorescence microscopy. Format: cell-based. To be noted: Rattus norvegicus, PC-12, PC12 cells, 1 hour pre-treatment, 15 μM sodium arsenite for 23 hours, 10-point dose response curve. Here is the method: Exemplary compounds of the invention were evaluated for efficacy in inhibiting TDP-43 inclusions using a concentration-response assay. Briefly, PC12 cells stably expressing a GFP-tagged mutant form of TDP-43 (TDP-43^Q33IK::eGFP) were pre-treated for 1 hour with exemplary compounds and stressed with 15 μM sodium arsenite for 23 hours to induce TDP-43 aggregation. The inhibitory effect on TDP-43 aggregation was measured using fluorescence microscopy. The ratio of cells with TDP-43 aggregates was calculated based on the total number of cells with detectable GFP expression. In the table, “A” indicates an IC50 of less than 100 nM, “B” indicates an IC50 range from 100 nM to 500 nM; “C” indicates an IC50 range from 500 nM to 2 μM; and “D” indicates an IC50 greater than 2 μM.
Usually IC50 stands for the midpoint of a concentration-inhibition curve. Turning to `CCN(C(=O)c1cc2ncccc2[nH]1)[C@H]1CCC[C@@H](NCc2ccc(F)cc2)C1` [Compound 152], the IC50 was less than 100 nM.

Regarding `O=C(c1cc2ccccc2[nH]1)N(CC(F)(F)F)[C@H]1CCC[C@@H](NCc2cccc(F)c2)C1` [Compound 170, N-((1S,3R)-3-((3-fluorobenzyl)amino)cyclohexyl)-N-(2,2,2-trifluoroethyl)-1H-indole-2-carboxamide], the IC50 is less than 100 nM.

In the case of `O=C(c1cc2ccccc2[nH]1)N(CC(F)(F)F)[C@H]1CCC[C@@H](NCc2ccc(F)cc2)C1` [Compound 171], the IC50 was less than 100 nM.

For `O=C(c1cc2ccccc2[nH]1)N(CC(F)(F)F)[C@H]1CCC[C@H](NCc2cccc(F)c2)C1` [Compound 172, N-((1S,3S)-3-((3-fluorobenzyl)amino)cyclohexyl)-N-(2,2,2-trifluoroethyl)-1H-indole-2-carboxamide], the IC50 fell in the range of 500 to 2000 nM.

For `O=C(c1cc2ccccc2[nH]1)N(CC(F)(F)F)C1CCC[C@H](NCc2cccnc2)C1` (some centres unmarked) [Compound 174], the IC50 was greater than 2000 nM.

Consider `O=C(c1cc2ccccc2[nH]1)N(CC(F)(F)F)[C@H]1CCC[C@@H](NCc2cccnc2)C1` [Compound 175], for which the IC50 was less than 100 nM.

Take `O=C(c1cc2ccccc2[nH]1)N(CC(F)(F)F)[C@H]1CCC[C@H](NCc2ccncc2)C1` [Compound 176]: the IC50 is greater than 2000 nM.

`O=C(c1cc2ccccc2[nH]1)N(CC(F)(F)F)[C@H]1CCC[C@@H](NCc2ccncc2)C1` [Compound 177]: the IC50 lay within 100 to 500 nM.

On to `O=C(c1cc2ccccc2[nH]1)N(CC(F)(F)F)[C@H]1CCC[C@H](NCc2ccccc2)C1` [Compound 178], for which the IC50 fell in the range of 500 to 2000 nM.

As to `O=C(c1cc2ccccc2[nH]1)N(CC(F)(F)F)[C@H]1CCC[C@@H](NCc2ccccc2)C1` [Compound 179], the IC50 was less than 100 nM.

Turning to `O=C(c1cc2ccccc2[nH]1)N(CC(F)(F)F)[C@H]1CCC[C@H](NCc2ccc(F)cc2)C1` [Compound 180], the IC50 lay within 500 to 2000 nM.

Turning to `O=C(c1cc2ccccc2[nH]1)N(CC(F)(F)F)[C@H]1CCC[C@H](NCC2CCOCC2)C1` [Compound 182], the IC50 was 500 to 2000 nM.

Turning to `O=C(c1cc2ccccc2[nH]1)N(CC(F)(F)F)[C@H]1CCC[C@@H](NCC2CCOCC2)C1` [Compound 183], the IC50 is greater than 2000 nM.

For the compound `CCN(C(=O)c1cc2ccccc2[nH]1)[C@H]1CCC[C@@H](NC(=O)c2ccccc2)C1` [Compound 200, N-((1S,3R)-3-benzamidocyclohexyl)-N-ethyl-1H-indole-2-carboxamide], the IC50 is greater than 2000 nM.

Take `CCN(C(=O)c1cc2ccccc2[nH]1)[C@H]1COC[C@@H](NCc2ccccc2)C1` [Compound 300, N-((3R,5S)-5-(benzylamino)tetrahydro-2H-pyran-3-yl)-N-ethyl-1H-indole-2-carboxamide]: the IC50 fell in the range of 100 to 500 nM.

For `CCN(C(=O)c1cc2ccccc2[nH]1)[C@H]1COC[C@H](NCc2ccccc2)C1` [Compound 301, N-((3R,5R)-5-(benzylamino)tetrahydro-2H-pyran-3-yl)-N-ethyl-1H-indole-2-carboxamide], the IC50 is greater than 2000 nM.

Consider `O=C(c1cc2ccccc2[nH]1)N(CC(F)(F)F)[C@H]1COC[C@@H](NCc2ccccc2)C1` [Compound 302], for which the IC50 was 100 to 500 nM.

Consider `O=C(c1cc2ccccc2[nH]1)N(CC(F)(F)F)[C@H]1COC[C@H](NCc2ccccc2)C1` [Compound 303], for which the IC50 is greater than 2000 nM.

Regarding `C#Cc1ccc(C(=O)c2cccc(CN[C@@H]3CCC[C@H](N(CC)C(=O)c4cc5ccccc5[nH]4)C3)c2)cc1` [Compound 312, N-ethyl-N-((1S,3R)-3-((3-(4-ethynylbenzoyl)benzyl)-amino)cyclohexyl)-1H-indole-2-carboxamide], the IC50 is 500 to 2000 nM.

Turning to `CCN(C(=O)c1cc2ccccc2[nH]1)[C@@H]1C[C@H](NCc2ccccc2)CS(=O)(=O)C1` [Compound 313, N-((3R,5S)-5-(benzylamino)-1,1-dioxidotetrahydro-2H-thiopyran-3-yl)-N-ethyl-1H-indole-2-carboxamide], the IC50 is greater than 2000 nM.

As to `CCN(C(=O)c1cc2ccccc2[nH]1)[C@@H]1C[C@@H](NCc2ccccc2)CS(=O)(=O)C1` [Compound 314, N-((3R,5R)-5-(benzylamino)-1,1-dioxidotetrahydro-2H-thiopyran-3-yl)-N-ethyl-1H-indole-2-carboxamide], the IC50 is greater than 2000 nM.

Consider `CCN(C(=O)c1cc2ccccc2[nH]1)[C@H]1CCC[C@@H](NCc2cccc(N=[N+]=[N-])c2)C1` [Compound 316, N-((1S,3R)-3-((3-azidobenzyl)amino)cyclohexyl)-N-ethyl-1H-indole-2-carboxamide], for which the IC50 was less than 100 nM.

For the compound `CCN(C(=O)c1cc2ccccc2[nH]1)[C@H]1CCC[C@@H](NCc2ccc(N=[N+]=[N-])cc2)C1` [Compound 317], the IC50 was less than 100 nM.

For `CCN(C(=O)c1cc2ccccc2[nH]1)[C@H]1CCC[C@@H](NC2(c3ccccc3)COC2)C1` [Compound 318, N-ethyl-N-((1S,3R)-3-((3-phenyloxetan-3-yl)amino)cyclohexyl)-1H-indole-2-carboxamide], the IC50 lay within 500 to 2000 nM.

On to `CCN(C(=O)c1nc2ccccc2[nH]1)[C@H]1CCC[C@@H](NCc2ccccc2)C1` [Compound 400, N-((1S,3R)-3-(benzylamino)cyclohexyl)-N-ethyl-1H-benzo[d]imidazole-2-carboxamide], for which the IC50 was less than 100 nM.

Turning to `CCN(C(=O)c1cc2cnccc2[nH]1)[C@H]1CCC[C@@H](NCc2ccccc2)C1` [Compound 401], the IC50 was in the range of 100 to 500 nM.

Consider `CCN(C(=O)c1[nH]c2ccccc2c1C)[C@H]1CCC[C@@H](NCc2ccccc2)C1` [Compound 402], for which the IC50 is less than 100 nM.

In the case of `CCN(C(=O)c1cc2ccncc2[nH]1)[C@H]1CCC[C@@H](NCc2ccccc2)C1` [Compound 403], the IC50 was 100 to 500 nM.

Consider `CCN(C(=O)c1ccccn1)[C@H]1CCC[C@@H](NCc2ccccc2)C1` [Compound 404], for which the IC50 is greater than 2000 nM.

On to `CCN(C(=O)c1ccccc1)[C@H]1CCC[C@@H](NCc2ccccc2)C1` [Compound 405], for which the IC50 is greater than 2000 nM.

For the compound `CCN(C(=O)c1cc2ncccc2[nH]1)[C@H]1CCC[C@@H](NCc2cccc(N=[N+]=[N-])c2)C1` [Compound 406, N-((1S,3R)-3-((3-azidobenzyl)amino)cyclohexyl)-N-ethyl-1H-pyrrolo[3,2-b]pyridine-2-carboxamide], the IC50 was less than 100 nM.

`CCN(C(=O)c1cc2ncccc2[nH]1)[C@H]1CCC[C@@H](NCc2ccc(N=[N+]=[N-])cc2)C1` [Compound 407]: the IC50 was less than 100 nM.

For `CCN(C(=O)c1cc2ncccc2[nH]1)[C@H]1CCC[C@@H](NC(C)(C)c2ccc(OC)cc2)C1` [Compound 408], the IC50 was less than 100 nM.

In the case of `CCN(C(=O)c1cc2ncccc2[nH]1)[C@H]1CCC[C@H](NC(C)(C)c2ccc(OC)cc2)C1` [Compound 409], the IC50 was 500 to 2000 nM.

For the compound `CCN(C(=O)c1cc2ncccc2[nH]1)[C@H]1CCC[C@@H](NC(C)(C)c2ccc(F)cc2)C1` [Compound 410], the IC50 is less than 100 nM.

Take `CCN(C(=O)c1cc2ncccc2[nH]1)[C@H]1CCC[C@H](NC(C)(C)c2ccccc2)C1` [Compound 411]: the IC50 is less than 100 nM.

`CCN(C(=O)c1cc2ccccc2[nH]1)[C@H]1CCC[C@@H](N[C@H](c2ccccc2)C(F)(F)F)C1` [Compound 414]: the IC50 is 500 to 2000 nM.

Take `CCN(C(=O)c1cc2ccccc2[nH]1)[C@H]1CCC[C@@H](N[C@@H](c2ccccc2)C(F)(F)F)C1` [Compound 415]: the IC50 was greater than 2000 nM.

With `CCN(C(=O)c1cc2ncccc2[nH]1)[C@H]1CCC[C@@H](NC2(c3ccccc3)CC2)C1` [Compound 418, N-ethyl-N-((1S,3R)-3-((1-phenylcyclopropyl)amino)cyclohexyl)-1H-pyrrolo[3,2-b]pyridine-2-carboxamide], the IC50 was in the range of 100 to 500 nM.

Take `CCN(C(=O)c1cc2ccccc2[nH]1)[C@H]1CCC[C@@H](NC2(c3ccccc3)CC2)C1` [Compound 419]: the IC50 fell in the range of 100 to 500 nM.

For `CCN(C(=O)c1cc2ncccc2[nH]1)[C@H]1CCC[C@H](NC2(c3ccccc3)CC2)C1` [Compound 420], the IC50 was in the range of 500 to 2000 nM.

Take `CCN(C(=O)c1cc2ccccc2[nH]1)[C@H]1CCC[C@H](NC2(c3ccccc3)CC2)C1` [Compound 421]: the IC50 was greater than 2000 nM.

`O=C(c1cc2ncccc2[nH]1)N(CC(F)(F)F)[C@H]1CCC[C@@H](NCc2cccc(F)c2)C1` [Compound 422, N-((1S,3R)-3-((3-fluorobenzyl)amino)cyclohexyl)-N-(2,2,2-trifluoroethyl)-1H-pyrrolo[3,2-b]pyridine-2-carboxamide]: the IC50 was less than 100 nM.

In the case of `O=C(c1cc2ncccc2[nH]1)N(CC(F)(F)F)[C@H]1CCC[C@@H](NCc2ccc(F)cc2)C1` [Compound 423], the IC50 is less than 100 nM.

With `COc1ccc(C(C)(C)N[C@@H]2CCC[C@H](N(CC(F)(F)F)C(=O)c3cc4ncccc4[nH]3)C2)cc1` [Compound 424, N-((1S,3R)-3-((2-(4-methoxyphenyl)propan-2-yl)amino)cyclohexyl)-N-(2,2,2-trifluoroethyl)-1H-pyrrolo[3,2-b]pyridine-2-carboxamide], the IC50 was less than 100 nM.

Turning to `C#CCCC1(CCOc2ccc(CN[C@@H]3CCC[C@H](N(CC)C(=O)c4cc5ccccc5[nH]4)C3)cc2)N=N1` [Compound 425, N-((1S,3R)-3-((4-(2-(3-(but-3-yn-1-yl)-3H-diazirin-3-yl)ethoxy)benzyl)amino)cyclohexyl)-N-ethyl-1H-indole-2-carboxamide], the IC50 fell in the range of 100 to 500 nM.

Take `C#CCCC1(CCOc2cccc(CN[C@@H]3CCC[C@H](N(CC)C(=O)c4cc5ccccc5[nH]4)C3)c2)N=N1` [Compound 426]: the IC50 is less than 100 nM.
